Assay results taken from publication PMC6108835, “Target-Based Discovery of an Inhibitor of the Regulatory Phosphatase PPP1R15B” (Cell, 2018).

Columns and labels:
[1] = tested on: eIF2α phosphorylation (HeLa cells); assay: Protein analyses on immunoblots, HeLa cells; format: cell-based, human; settings: for eIF2α phosphorylation: 0-10 h
Protocol: HeLa or MEF cells (90,000 cells/mL) were plated in 12-well plates (1 mL/well). The following day cells were treated as indicated; the medium was removed, fresh medium containing compound added and incubated at 37°C for the times indicated. The time course was performed in reverse order to facilitate collecting all samples at the same time. At the end of treatment cells were washed two times with ice-cold PBS and lysed in 150 μL Laemmli Buffer. Lysates were transferred to 1.5 mL eppendorf tubes, boiled at 95°C for 5 min, sonicated and resolved on Bolt SDS-PAGE 4%–12% Bis-Tris gels (ThermoFisher Scientific). Proteins were transferred to the nitrocellulose membrane using the iBlot 2 system (ThermoFisher Scientific). Membrane was blocked in 5% skimmed milk for 30 min and then probed with primary antibodies followed by incubation with the appropriate horseradish peroxidase-conjugated secondary antibodies (Promega). Proteins were visualized using ECL Prime (GE Healthcare) and imaged in the Chemi-Smart 5000 (Vilber-Lourmat, France) or ChemiDoc Touch (BioRad). Bands were quantified using ImageJ (NIH, USA). The following primary antibodies were used: e-IF2α-P (ThermoFisher Scientific (#44-728G), 1:1,000), e-IF2α (Abcam (#ab5369), 1:1,000), tubulin (Sigma-Aldrich (#T5168), 1:4,000), BiP (BD Biosciences PharMingen (#610978), 1:1,000), ATF4 (Santa Cruz Biotechnology (#sc-200), 1:500), Ppp1r15a (Proteintech (#10449-1-AP), 1:1,000), Ppp1r15b (Proteintech (#14634-1-AP), 1:1,000) and CHOP (ABR Affinity BioReagents (#MA1-250), 1:1,000).

[2] = Body weight gain of wild-type mice under chronic treatment; format: in vivo, mouse; settings: various doses once a day (2 mg/kg for 10 weeks; 15 days at indicated doses)
Protocol: The acetate salts of Raphin1 or GBZ were dissolved in water and sonicated for 10 min. The solution was aliquoted and kept at −20°C until use. Once thawed a tube was kept at 4°C and used within 24 hr. The compounds were administered by oral gavage.
Raphin1 was administered at 2 mg/kg (unless otherwise specified). Mice received a single dose or were treated chronically – one time per day. Control mice were treated with vehicle (water) only.
Mice were weighted on a dedicated scale (A&D, FX3000iWP). 4 weeks old treatment and test naive C57BL/6J males and females (Figure 6B) and 2 months old treatment and test naive C3H/B6 males (Figure S6A) were used.

[3] = tested on: wild-type mice; assay: Morris water maze; format: in vivo, mouse; settings: 2 mg/kg for 2 weeks
Protocol: Morris water maze and the following fear conditioning were performed on C57BL/6J wild-type males aged 2.5 months. Mice were treatment- and test-naive before the treatment started. Treatment with Raphin1 started two weeks before and was continued during the behavioral tests.
The water maze consisted of a white circular tank (1.50 m diameter) filled with opaque water adjusted to 21 ± 1°C. For the hidden platform task, the escape platform (10 cm diameter) was positioned 1 cm below water surface in the center of one of the pool quadrants. The walls surrounding the water maze were hung with posters and flags, which served as visual cues and were visible during all stages of 5 trainings and testing. Movement of the mice within the pool was tracked and analyzed with a computerized tracking system (ViewPoint, France). During training mice were required to locate a submerged hidden platform by using only extra-maze cues. Each mouse received five blocks of training trials over five consecutive days. […] Spatial learning performance was assessed during a probe trial 1 hr after the last session of training, and for which the target platform was removed from the pool. To evaluate the performance during training trials the latency and distance traveled to find the hidden platform were measured. […]

[4] = tested on: brains of wild-type mice; assay: Monitoring translation rates in vivo, brains of wild-type mice; parameters: species or system mouse; settings: 40 mg/kg
Protocol: 3 months old treatment- and test-naive C57BL/6J males were treated as indicated. 30 min before the end of treatment mice were injected intraperitoneally with 0.75 mCi/kg radioactive label – 75% ^35S-methionine + 25% ^35S-cystine (Hartmann Analytic). At the end of treatment mice were culled by cervical dislocation, brains were extracted, fresh-frozen in liquid nitrogen and kept at −80°C until use. Tissue was homogenized and lysed in Laemmli Buffer (1 mL for 0.5 mg tissue). Lysates were boiled at 95°C for 5 min, sonicated and resolved on Bolt SDS-PAGE 4%–12% Bis-Tris gels (ThermoFisher Scientific). Gels were then stained with InstantBlue (Expedeon) and after the gels had been imaged they were transferred to a 20% ethanol, 7% acetic acid, 4% glycerol solution for 10 min. This was to prevent the gels from cracking while drying. The gels were transferred to filter paper and dried using a gel dryer. The gels were then exposed to a Storage Phosphor Screen (GE Healthcare) and analyzed by phosphorimaging using a Typhoon Imager Scanner (GE Healthcare).

[5] = biological target: PP1c (Homo sapiens, UniProt P36873); assay: SPR, compounds binding to PP1c alone immobilized on streptavidin chip; parameters: cDNA encoding for human PP1cγ (aa 1-322) was cloned into two baculovirus transfer vectors; made in house; host or cells: Sf9 insect cells (baculovirus); settings: PP1c immobilized on SA chip
Protocol: Small molecules were stored as 50 mM stock solutions in 100% DMSO. […] If necessary the concentration range was adjusted to accurately determine the KD depending on the initial results. […] This was followed by 1 min stabilization period, to wash off any unspecific binding. […] After each dilution series, the surface was regenerated using 3 M NaCl for 90 s. […] In order to be able to correct for small variations in DMSO concentration between samples, eight solvent samples ranging from 0.06 to 8% DMSO were injected every 50th cycle. The flow cell temperature was 20°C.

PP1c, sequence (P36873 1-322): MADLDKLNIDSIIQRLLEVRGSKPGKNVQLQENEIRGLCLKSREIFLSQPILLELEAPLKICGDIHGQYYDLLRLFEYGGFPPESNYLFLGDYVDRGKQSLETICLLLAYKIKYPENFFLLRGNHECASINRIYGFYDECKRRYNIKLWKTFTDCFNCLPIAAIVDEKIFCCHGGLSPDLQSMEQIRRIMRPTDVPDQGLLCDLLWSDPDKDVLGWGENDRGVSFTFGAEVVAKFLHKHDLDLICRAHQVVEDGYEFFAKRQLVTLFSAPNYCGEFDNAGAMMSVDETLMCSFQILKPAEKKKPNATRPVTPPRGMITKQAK

[H]/N=C(\N)NN=Cc1cccc(Cl)c1Cl [Raphin1, (E)-2-(2,3-dichlorobenzylidene)hydrazine-1-carboximidamide]
ATF4 and R15A induction ([1]; 10 μM): induced | Stress marker BiP ([1]; 10 μM): did not increase | eIF2α phosphorylation ([1]; 20 μM): persistent phosphorylation | eIF2α phosphorylation ([1]; unstressed, 10 μM): rapidly and transiently increased | Adverse effects on weight gain [2]: no obvious adverse effects | Adverse effects on memory, Morris water maze [3]: no adverse effects | Time of translation recovery after administration ([4]; wild-type brains): ~6 h | Protein synthesis in the brains (in words) ([4]; wild-type mice): transiently reduced | Binding to PP1c alone (in words) [5]: did not bind
